{"source": "patent US20130205416A1", "about": "(priority 2010, published 2013)", "key": {"A/WSN/33 H1N1 virus [1]": {"system": "A/WSN/33 H1N1 virus", "assay_type": "cell-based, Influenza A virus"}, "[2]": {"system": "H1N1 viruses (A/WSN/33 and A/England/195/09)", "conditions": "for IC50: viruses (A/WSN/33 and A/England/195/09)"}, "[3]": {"system": "H3N2 viruses (A/Udorn and A/Victoria/3/75)", "conditions": "for IC50: viruses (A/Udorn and A/Victoria/3/75)"}, "A/WSN/33 H1N1 virus [4]": {"system": "A/WSN/33 H1N1 virus", "assay_type": "cell-based, Influenza A virus", "remark": "listed apart in the source"}, "A/WSN/33 influenza virus": {"system": "A/WSN/33 influenza virus", "set-up": "species or system BALB/c mice", "conditions": "mouse"}, "[5]": {"system": "attachment of A/WSN/33 (H1N1) virus to MDCK cells", "assay_type": "cell-based, Influenza A virus"}, "[6]": {"biological_target": "recombinant Haemagglutinin (HA) (California 04/2009 H1N1 Influenza A) (Influenza A virus, UniProt C3W5S1)", "sequence (C3W5S1 entry or part of it, added parts left off)": "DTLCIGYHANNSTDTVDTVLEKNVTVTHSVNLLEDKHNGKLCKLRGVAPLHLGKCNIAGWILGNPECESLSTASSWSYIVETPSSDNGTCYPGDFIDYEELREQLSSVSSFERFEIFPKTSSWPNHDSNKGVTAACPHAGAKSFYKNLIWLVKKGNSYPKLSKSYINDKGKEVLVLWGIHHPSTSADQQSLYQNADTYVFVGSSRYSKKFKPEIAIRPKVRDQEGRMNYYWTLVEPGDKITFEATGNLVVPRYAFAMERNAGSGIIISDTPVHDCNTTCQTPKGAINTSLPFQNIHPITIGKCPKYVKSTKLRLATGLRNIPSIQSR", "assay_type": "binding"}, "[7]": {"system": "Semliki Forest virus (SFV)", "assay_type": "cell-based"}, "[8]": {"system": "human parainfluenza virus", "assay_type": "cell-based"}, "[9]": {"system": "PR8/Eng09 H1N1 virus (A/England/195/09)", "assay_type": "cell-based, Influenza A virus"}, "[10]": {"system": "PR8/Vic H3N2 virus (A/Victoria/3/75)", "assay_type": "cell-based, Influenza A virus"}, "[11]": {"system": "PR8/Viet H5N1 virus (A/Vietnam/1194/04)", "assay_type": "cell-based, Influenza A virus"}, "[12]": {"conditions": "mouse, in vivo"}}, "note": "Values joined by “and” are separate entries in the source; they are usually repeats but may differ in a detail not shown here. Identical values can stand only once. Square brackets hold non-standard residues; d marks the D form. Ends that are not written are not given here.", "data": [{"substance": "WLVFFVRRKK [FP8]", "values": [{"measurement": "anti-viral activity", "setting": "A/WSN/33 H1N1 virus [1]", "result": "substantial anti-viral activity"}, {"measurement": "knockdown of plaque formation", "setting": "A/WSN/33 H1N1 virus [1]", "result": 94, "unit": "%"}]}, {"substance": "WLVFFVIAYFAR [FP2, WLVFFVIAYFAR]", "values": [{"measurement": "IC50", "setting": "[2]", "result": 1.6, "unit": "nM"}, {"measurement": "IC50", "setting": "[3]", "result": 1.6, "unit": "nM"}]}, {"substance": "FP1-D: FP1 prepared with D-amino acids (SEQ ID NO 20) ([dW][dL][dV][dF][dF][dV][dI][dF][dY][dF][dF][dR])", "values": [{"measurement": "reduction in virus yield", "setting": "A/WSN/33 H1N1 virus [4]", "result": "85% and 68%"}, {"measurement": "inhibition of H1N1 virus infection", "setting": "[2]", "result": "inhibit"}, {"measurement": "inhibition of H3N2 virus infection", "setting": "[3]", "result": "inhibit"}]}, {"substance": "IVWFYLFRFFVF [FP10, IVWFYLFRFFVF]", "values": [{"measurement": "inhibition of lung viral titres in vivo", "setting": "A/WSN/33 influenza virus", "result": "values similar to the control groups"}, {"measurement": "IC50", "setting": "[2]", "result": "< 1.48", "unit": "nM"}, {"measurement": "IC50", "setting": "[3]", "result": 72, "unit": "nM"}]}, {"substance": "PEG300-RRKKWLVFFVIFYFFR [FP4-PEG]", "values": [{"measurement": "reduction in virus yield", "setting": "A/WSN/33 H1N1 virus [4]", "result": 68, "unit": "%"}, {"measurement": "virus yield", "setting": "A/WSN/33 H1N1 virus [4]", "result": "No virus was detected"}]}, {"substance": "WLVFFVIFYFFRRRKK [FP3, WLVFFVIFYFFRRRKK]", "values": [{"measurement": "knockdown of plaque formation", "setting": "A/WSN/33 H1N1 virus [1]", "result": 100, "unit": "%"}, {"measurement": "inhibition of viral attachment", "setting": "[5]", "result": "completely inhibited"}, {"measurement": "binding to HA", "setting": "[6]", "result": "can bind Influenza A HA"}, {"measurement": "agglutination end point", "setting": "horse RBCs", "result": 6.25, "unit": "µg/mL"}, {"measurement": "agglutination end point", "setting": "human RBCs", "result": 0.78, "unit": "µg/mL"}, {"measurement": "IC50", "setting": "[2]", "result": "66 to 100", "unit": "nM"}, {"measurement": "inhibition of H3N2 infection", "setting": "[3]", "result": "only weakly inhibit"}, {"measurement": "IC50", "setting": "[3]", "result": 16000, "unit": "nM"}]}, {"substance": "FFVIFYRRKK [FP9, FFVIFYRRKK]", "values": [{"measurement": "anti-viral activity", "setting": "A/WSN/33 H1N1 virus [1]", "result": "substantial anti-viral activity"}, {"measurement": "knockdown of plaque formation", "setting": "A/WSN/33 H1N1 virus [1]", "result": 94, "unit": "%"}, {"measurement": "inhibition of H1N1 infection", "setting": "[2]", "result": "very effective"}, {"measurement": "IC50", "setting": "[2]", "result": 1500, "unit": "nM"}, {"measurement": "inhibition of H3N2 infection", "setting": "[3]", "result": "to a lesser extent"}]}, {"substance": "WLVFFVIFYFFR [FP1]", "values": [{"measurement": "knockdown of plaque formation", "setting": "A/WSN/33 H1N1 virus [1]", "result": 94, "unit": "%"}, {"measurement": "antiviral effects", "setting": "[7]", "result": "no antiviral effects"}, {"measurement": "antiviral effects", "setting": "[8]", "result": "no antiviral effects"}, {"measurement": "antiviral activity in vivo (body weight, lung virus titre)", "setting": "A/WSN/33 influenza virus", "result": "potent antiviral activity"}]}, {"substance": "RRKKWLVFFVIYFFR [FP4, RRKKWLVFFVIYFFR]", "values": [{"measurement": "knockdown of plaque formation", "setting": "A/WSN/33 H1N1 virus [1]", "result": 100, "unit": "%"}, {"measurement": "knockdown", "setting": "[9]", "result": 90, "unit": "%"}, {"measurement": "knockdown", "setting": "[10]", "result": 97, "unit": "%"}, {"measurement": "knockdown", "setting": "[11]", "result": "complete knockdown"}, {"measurement": "agglutination end point", "setting": "horse RBCs", "result": 6.25, "unit": "µg/mL"}, {"measurement": "agglutination end point", "setting": "human RBCs", "result": 0.78, "unit": "µg/mL"}, {"measurement": "inhibition of lung viral titres in vivo", "setting": "A/WSN/33 influenza virus", "result": "effective"}, {"measurement": "clinical indications", "setting": "A/WSN/33 influenza virus; in vivo", "result": "no clinical indications"}, {"measurement": "survival of mice", "setting": "A/WSN/33 influenza virus; in vivo", "result": 100, "unit": "%"}, {"measurement": "reduction in virus yield", "setting": "A/WSN/33 H1N1 virus [4]", "result": "99% and 50%"}, {"measurement": "IC50", "setting": "[2]", "result": "66 to 100", "unit": "nM"}, {"measurement": "immunogenicity (serum IgG by ELISA)", "setting": "[12]", "result": "neither FP2 nor FP4 peptides were immunogenic"}]}, {"substance": "RRKK-IFYFFR [FP7]", "values": [{"measurement": "inhibition of H1N1 infection", "setting": "[2]", "result": "failed to inhibit"}, {"measurement": "inhibition of H3N2 infection", "setting": "[3]", "result": "failed to inhibit"}]}]}
